Experimental data taken from US9050376B2 (priority 2007, dated 2015).
Entries after “also recorded” stand apart in the source; their conditions may differ.

Key:
TLR7 = molecular target: T1, TLR7 (Homo sapiens, UniProt Q9NYK1); experiment: TLR transformants, TLR7 agonist specificity and potency; type: cell-based
T1 construct: expressed in transfected cells
T1 sequence (Q9NYK1 27-1049): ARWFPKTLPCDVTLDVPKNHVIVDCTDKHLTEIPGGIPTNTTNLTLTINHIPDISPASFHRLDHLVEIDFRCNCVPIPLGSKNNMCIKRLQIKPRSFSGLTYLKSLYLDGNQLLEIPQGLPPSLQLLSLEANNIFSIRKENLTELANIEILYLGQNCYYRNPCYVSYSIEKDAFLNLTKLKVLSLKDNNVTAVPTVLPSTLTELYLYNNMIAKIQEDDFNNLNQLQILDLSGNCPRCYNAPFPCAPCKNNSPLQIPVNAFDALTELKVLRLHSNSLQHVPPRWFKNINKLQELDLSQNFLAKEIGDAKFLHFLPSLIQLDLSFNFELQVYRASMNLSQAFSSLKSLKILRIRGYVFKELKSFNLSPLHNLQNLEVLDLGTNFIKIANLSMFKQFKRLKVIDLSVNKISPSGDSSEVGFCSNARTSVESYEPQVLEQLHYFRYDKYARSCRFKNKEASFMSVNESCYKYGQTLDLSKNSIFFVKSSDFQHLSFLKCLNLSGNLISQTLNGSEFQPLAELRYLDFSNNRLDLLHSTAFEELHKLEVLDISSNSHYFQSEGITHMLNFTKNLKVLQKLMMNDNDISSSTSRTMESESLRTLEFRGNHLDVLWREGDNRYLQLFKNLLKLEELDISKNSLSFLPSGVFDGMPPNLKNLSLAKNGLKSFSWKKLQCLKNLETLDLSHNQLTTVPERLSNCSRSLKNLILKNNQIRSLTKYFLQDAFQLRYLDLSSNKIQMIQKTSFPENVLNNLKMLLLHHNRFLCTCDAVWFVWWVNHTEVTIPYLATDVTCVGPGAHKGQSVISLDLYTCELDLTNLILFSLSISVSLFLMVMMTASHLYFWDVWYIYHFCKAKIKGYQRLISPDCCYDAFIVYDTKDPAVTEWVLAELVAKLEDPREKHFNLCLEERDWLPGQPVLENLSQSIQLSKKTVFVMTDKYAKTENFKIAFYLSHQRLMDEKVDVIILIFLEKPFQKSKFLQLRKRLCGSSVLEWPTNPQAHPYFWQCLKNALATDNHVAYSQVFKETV

B. anthracis = system: B. anthracis; set-up: species or system A/J mice; details: mouse, in vivo
[1] = set-up: species or system C57BL/6 mice; details: mouse, in vivo, iv
[2] = set-up: species or system C57BL/6 mice; details: mouse, in vivo
[3] = system: bone-marrow-derived macrophages (BMDM); type: cell-based, mouse; details: 24 hours incubation
[4] = system: B16 melanoma tumor cells expressing the cOVA transgene; set-up: species or system C57/B1 mice; details: mouse, in vivo
anthrax infection = details: in vivo

## COCCOc1nc(N)c2nc(O)n(Cc3ccc(C=O)cc3)c2n1 [UC-1V150, 4-[6-amino-8-hydroxy-2-(2-methoxyethoxy)purin-9-ylmethyl]benzaldehyde]
TLR7
  TLR specificity: specific TLR7 agonist
B. anthracis
  effect on survival / protection: no significant difference; also recorded: failed to protect
[1]
  time of peak serum cytokine levels: about 2 hours
[2]
  cytokine production in the BALF: induced selective cytokine production
[3]
  cytokine release / activation of BMDM: stimulated cytokine release; also recorded: active at nanomolar concentrations

## chicken ovalbumin: antigen alone, comparator
[4]
  median survival: 22 days

## O=C(O)c1cn(C2CC2)c2cc(N3CCNCC3)c(F)cc2c1=O [ciprofloxacin]
Anthrax infection
  survival: 15-25%
